Measurements taken from patent publication US9289003B2, “Use of compounds involved in biosynthesis of nucleic acids as cryoprotective agents” (CHR. HANSEN A/S, priority 2003, dated 2016).
“Also recorded” adds a separate entry of the source.

Key:
[1] = tested on: freeze-dried LD-culture of Fl-Da N; assay: Acidifying activity assay of freeze-dried Fl-Da N culture (FD-DVS); assay type: cell-based; conditions: 3% w/w additive, 0.005% inoculum
Method: Frozen culture was inoculated on a 0.01% (w/w) level in 200 ml UHT-sterilized reconstituted skimmed milk (RSM) containing 9.5% (w/w) solid matter and heated at 99° C. for 30 minutes (LAB-milk). The RSM was incubated at 30° C. for 6 h to permit acidification of the substrate material. The acidification activity was measured as described in Example 6: Analytical Procedure QAm-052, “acidification activity—UHT”, Chr. Hansen A/S (Denmark).
(§1) The additive was added to the concentrate as a 30% sterile solution.
To simulate the situation encountered in the industrial situation during a freezing process, the additives and concentrates were mixed and stored for 5 hours at 8° C. and subsequently frozen in liquid nitrogen and further stored at −50° C. for one day before freeze-drying. After freeze-drying was completed the culture was stored at −50° C. until analysis. […] Culture activity in milk (LAB-rnilk) was measured after 7 days of storage at −50° C.
This example describes the stability of freeze-dried LDultures (FD-DVS) of Fl-Da-N formulated with and without a number of different additives, which may act as cryprotective agents. In the experiments the.concentration of the various additives were 3% w/w per gram concentrated biomass unless other vice indicated in the figures.
After fermentation, biomass was harvested and concentrated via centrifugation from fermentation broth of Fl-Da N as described in the Materials and Method section. The cell concentrate was divided into a number of portions and was added to each of the portions. To simulate the situation encountered in the industrial situation during a freezing process, the additives and concentrates were mixed and stored for 5 hours at 8° C. and subsequently frozen in liquid nitrogen and further stored at −50° C. for one day before freezedrying. After freeze-drying was completed the culture was stored at −50° C. until analysis. […] Culture activity in milk (LAB-milk) was measured by the acidifying activity assay after 1 day and after 2 months of storage at −50° C.

[2] = tested on: liquid lactic acid-bacterial starter culture concentrates; conditions: 3% Na-formate; cited from earlier work
[3] = tested on: F-DVS™ CH-N 19 (frozen LD-culture); assay: Acidifying activity assay of frozen concentrated F-DVS CH-N 19 culture; assay type: cell-based; conditions: Example 15; 1 day and 6 days at −50° C; 0,005% w/v inoculum, 6 hrs at 30° C; Na-formate 3% w/w
Method: The additives and concentrates were mixed for 30 minutes and subsequently 150 g of the two portions was frozen in liquid nitrogen. […] Culture activity in milk (heat sterilized LAB-milk) was measured.
The concentration of the various additives is given in the figures as % w/w per gram concentrated biomass.
Culture activity in milk (LAB-milk) was measured as acidification activity after 1 day (FIG. 13) and 6 days (FIG. 14) of storage at −50° C. The activity assay is based on a 0,005% w/v inoculum and 6 hrs incubation at 30° C.

[4] = tested on: bacterial cultures; assay: Cryoprotection of bacterial cultures, summary statements of the description; assay type: cell-based; conditions: summary of the experiments (examples 12 and 15 cited for adenosine)
[5] = tested on: F-DVS™ Fl-Da N (frozen LD-culture); assay: Acidifying activity assay of frozen concentrated F-DVS Fl-Da N culture stored at −50° C; assay type: cell-based; conditions: 3% w/w additive; for reduction in stability of culture without additive relative to culture stabilized by additive / loss of acidification activity of culture without additive: 13 days at −50° C; for reduction in stability of culture without additive relative to culture stabilized by additive: 0.01% inoculum, pH after 6 hrs at 30° C; for loss of acidification activity of culture without additive: corresponds to the pH difference; for ranking as cryoprotective during prolonged storage: storage extended to 21 or 49 days at −50° C
Method: In this example the stability measured by the acidification activity of a commercially produced LD-culture: F-DVS™ FI-Da N (Chr. Hansen A/S Item. No. 501691) was followed over a period of 6 months. The culture was produced and stored at −50° C. as described in the Materials and Methods section.
In contrast to what is common the first activity-measurement in this example was performed immediately after the culture were frozen as pellets in liquid nitrogen and followed by measurements after 1, 2, 12, 20 and 188 days of storage at −50° C.
as §1
To simulate a situation similar to the industrial situation during the freezing process the additives and concentrates were mixed and stored for 5 hours at 8° C. and subsequently frozen in liquid nitrogen and further stored at −50° C. […] Culture activity in milk (LAB-milk) was measured the same day as the frozen cultures were formulated.
Culture activity in milk (LAB-milk) was measured the same day as the cultures were frozen and the activity was followed periodically up to 13 days.
Experimental details were as described in Example 10, with the exception that the activity was monitored for an extended period of time.

With `O=c1ccn([C@@H]2O[C@H](COP(=O)(O)O)[C@@H](O)[C@H]2O)c(=O)[nH]1` [UMP, uranosine-5′-monophosphate] the “effect on stability of freeze-dried culture” value ([1]; 2 months of storage at −50° C) was “preferred”.
For `O=C[O-].[Na+]` [Na-formate], the “effect on storage stability of liquid starter culture concentrates” value [2] is given as “effective to increase the storage stability of liquid lactic acid-bacterial starter culture concentrates” and the “effect on activity/stability of frozen culture” value (“effect on activity/stability” below) [3] is given as “detrimental for frozen cultures; also recorded: detrimental to the activity of frozen cultures; also recorded: decrease the storage stability of frozen lactic acid bacterial starter culture”.
In the case of `Nc1ncnc2c1ncn2[C@@H]1O[C@H](CO)[C@@H](O)[C@H]1O` [adenosine, reference compound], the “effect on stability of freeze-dried culture” value ([1]; 2 months of storage at −50° C) is reported as “harmful to the culture”, the “effect on stability of freeze-dried culture” value ([1]; one day of storage at −50° C) is reported as “highly efficient to ensure stability of the culture” and the “effectiveness as cryoprotective agent” value [4] is reported as “appears to decrease the stability of bacterial cultures”. The “effect on activity/stability” value [3] was “harmful to the activity of the culture”.
In the case of `Nc1ncnc2c1ncn2[C@@H]1O[C@H](COP(=O)(O)O)[C@@H](O)[C@H]1O` [AMP, adenosine-5′-monophosphate], the “effectiveness as cryoprotective agent” value [4] is reported as “but not AMP is effective as a cryoprotective agent” and the “effect on activity/stability” value [3] is reported as “harmful to the activity of the culture”.
With `Nc1ccn([C@@H]2O[C@H](COP(=O)(O)O)[C@@H](O)[C@H]2O)c(=O)n1` [CMP, cytidine-5′-monophosphate] the “effect on stability of freeze-dried culture” value ([1]; 2 months of storage at −50° C) was “preferred”.
With `Nc1nc2c(ncn2[C@@H]2O[C@H](COP(=O)(O)O)[C@@H](O)[C@H]2O)c(=O)[nH]1` [GMP, guanosine-5′-monophosphate] the “reduction in stability of culture without additive relative to culture stabilized by additive” value [5] was 0,31 pH units, the “loss of acidification activity of culture without additive” value [5] was 50% and the “ranking as cryoprotective during prolonged storage” value [5] was “better that IMP”.
For `OC[C@H]1O[C@@H](n2cnc3c(O)ncnc32)[C@H](O)[C@@H]1O` [Inosine, inosine], the “effect on stability of freeze-dried culture” value ([1]; one day of storage at −50° C) was “highly efficient to ensure stability of the culture”, the “effectiveness as cryoprotective agent” value [4] was “very effective as a cryoprotective agent” and the “reduction in stability of culture without additive relative to culture stabilized by additive” value [5] was 0.41 pH units. The “loss of acidification activity of culture without additive” value [5] was 60% and the “ranking as cryoprotective during prolonged storage” value [5] was “better cryoprotective of F-DVS™ FI-Da N than GMP”.
